In ChEMBL document CHEMBL1138517, “Synthesis and structure-activity relationship of griseofulvin analogues as inhibitors of centrosomal clustering in cancer cells” (J Med Chem, 2009):

Assay: Inhibition of centrosomal clustering in human SCC114 cells expressing GFPalpha-tubulin assessed as mitotic cells with multipolar spindles by fluorescence microscopy
Type: functional, cell-based
COc1cc(OC)c2c(c1Cl)O[C@]1(C2=O)C(OCc2ccc(-c3ccccc3)cc2)=CC(=O)C[C@H]1C showed an IC50 of 2.9 µM. Compound CCCCCOC1=CC(=O)C[C@@H](C)[C@]12Oc1c(Cl)c(OC)cc(OC)c1C2=O has an IC50 of 2.8 µM. For COc1cc(OC)c2c(c1Cl)O[C@]1(C2=O)C(OCc2ccc(C)cc2)=CC(=O)C[C@H]1C, the IC50 was 0.9 µM. CCCCOC1=CC(=O)C[C@@H](C)[C@]12Oc1c(Cl)c(OC)cc(OC)c1C2=O gave an IC50 of 2.5 µM. Work on CCCCCCOC1=CC(=O)C[C@@H](C)[C@]12Oc1c(Cl)c(OC)cc(OC)c1C2=O yielded an IC50 of 4 µM. Work on COC1=C[C@@H](O)C[C@@H](C)[C@]12Oc1c(Cl)c(OC)cc(OC)c1C2=O yielded an IC50 greater than 100 µM. With COc1cc(OC)c2c(c1Cl)O[C@@]1(C(=O)C(Cc3ccccc3)=C(O)C[C@H]1C)C2=O the IC50 was greater than 100 µM. Work on COc1cc(OC)c2c(c1Cl)O[C@]1(C2=O)C(OCc2ccccc2)=C/C(=N\O)C[C@H]1C yielded an IC50 of 0.9 µM. With COc1cc(OC)c2c(c1Cl)O[C@]1(C2=O)C(OCc2ccccc2)=C(I)C(=O)C[C@H]1C the IC50 was greater than 100 µM. Compound COC1=CC(=O)C[C@@H](C)[C@]12Oc1c(Cl)c(OC)cc(O)c1C2=O has an IC50 greater than 100 µM. CCCOC1=CC(=O)C[C@@H](C)[C@]12Oc1c(Cl)c(OC)cc(OC)c1C2=O gave an IC50 of 6.6 µM. In the case of COC1=CC(=O)C[C@@H](C)[C@]12Oc1c(Cl)c(OC)cc(OCc3ccccc3)c1C2=O, the IC50 is reported as greater than 100 µM. COc1cc(OC)c2c(c1Cl)O[C@]1(C2=O)C(OC2CCCC2)=CC(=O)C[C@H]1C gave an IC50 of 1.3 µM. In the case of COC1=CC(=O)C[C@@H](C)[C@]12Oc1c(Cl)c(OC)cc(OC)c1C2=O [GRISEOFULVIN], the IC50 is reported as 24 µM. COc1cc(OC)c2c(c1Cl)O[C@]1(C2=O)C(OCC2CC2)=CC(=O)C[C@H]1C gave an IC50 of 1.8 µM. COc1cc(OC)c2c(c1Cl)O[C@]1(C2=O)C(OCc2ccccc2)=CC(=O)C[C@H]1C gave an IC50 of 0.9 µM. For COC1=C(I)C(=O)C[C@@H](C)[C@]12Oc1c(Cl)c(OC)cc(OC)c1C2=O, the IC50 was greater than 100 µM. Work on COc1cc(OC)c2c(c1Cl)O[C@]1(C2=O)C(OCCc2ccccc2)=CC(=O)C[C@H]1C yielded an IC50 of 15 µM. With COC1=C/C(=N\O)C[C@@H](C)[C@]12Oc1c(Cl)c(OC)cc(OC)c1C2=O the IC50 was 17 µM. For COc1cc(OC)c2c(c1Cl)O[C@]1(C2=O)C(OCC23CC4CC(CC(C4)C2)C3)=CC(=O)C[C@H]1C, the IC50 was 3.7 µM. CCCOC1=C(I)C(=O)C[C@@H](C)[C@]12Oc1c(Cl)c(OC)cc(OC)c1C2=O showed an IC50 of 2 µM. For COC1=CC(=O)C[C@@H](C)[C@]12Oc1c(Cl)c(OC)c(NCc3ccccc3)c(OC)c1C2=O, the IC50 was greater than 100 µM. COc1cc(OC)c2c(c1Cl)O[C@]1(C2=O)C(=O)C(C)(C)C(=O)C[C@H]1C gave an IC50 greater than 100 µM. With COC1=C/C(=N\N(C)C)C[C@@H](C)[C@]12Oc1c(Cl)c(OC)cc(OC)c1C2=O the IC50 was 27 µM. COc1cc(OC)c2c(c1Cl)O[C@@]1(C(=O)C=C(O)C[C@H]1C)C2=O showed an IC50 greater than 100 µM. In the case of CCOc1cc(OC)c(Cl)c2c1C(=O)[C@@]1(O2)C(OC)=CC(=O)C[C@H]1C, the IC50 is reported as greater than 100 µM. In the case of COc1cc(OC)c2c(c1Cl)O[C@@]1(C2=O)[C@H](C)C[C@H](O)C[C@@H]1OC, the IC50 is reported as greater than 100 µM. With COC1=CC(=O)C[C@@H](C)[C@]12Oc1c(Cl)c(OC)c([N+](=O)[O-])c(OC)c1C2=O the IC50 was greater than 100 µM. With COc1cc(OC)c2c(c1Cl)O[C@]1(C2=O)C(Oc2ccccc2)=CC(=O)C[C@H]1C the IC50 was 1.5 µM. Compound COC1=CC(=O)C[C@@H](C)[C@]12Oc1c(Cl)c(OC)c(N)c(OC)c1C2=O has an IC50 greater than 100 µM. Compound CCOC1=CC(=O)C[C@@H](C)[C@]12Oc1c(Cl)c(OC)cc(OC)c1C2=O has an IC50 of 6.6 µM. For COC1=CC(=O)[C@@]2(Oc3c(Cl)c(OC)cc(OC)c3C2=O)[C@H](C)C1 [ISOGRISEOFULVIN], the IC50 was greater than 100 µM. With COc1cc(OC)c2c(c1Cl)O[C@]1(C2=O)C(OC(C)C)=CC(=O)C[C@H]1C the IC50 was 6.8 µM. For COc1cc(OC)c2c(c1Cl)O[C@]1(C2=O)C(SCc2ccccc2)=CC(=O)C[C@H]1C, the IC50 was 1.3 µM.
